Test results reported in US5670520A, “Method for inhibiting virus replication in mammalian cells using carbostyil derivatives” (Otsuka Pharmaceutical Co., Ltd., priority 1996, dated 1997).

What was measured:
[1] = tested on: CHO cells; assay: Rapid uptake of [3H]thymidine / [3H]AZT in CHO cells; details: 0-250 μM vesnarinone, 1 min
Protocol: Then, 1.0 μCi/ml of [^3 H]thymidine (6.7 Ci/mmol) or 1.0 μCi/ml of [^3 H]AZT (14 Ci/mmol) was added, and the mixture was immediately layered on silicone oil/paraffin oil (96:6) in microfuge tubes. […] The water and oil phases were discarded, and radioactivity of the cell pellets was measured using liquid scintillation counting.

[2] = tested on: EBV; assay: In situ hybridization of EBV DNA in anti-IgG stimulated DMSO-released Akata cells; format: cell-based, Epstein-Barr virus; details: 20 hrs after 50 μg/ml anti-IgG; vesnarinone 0-100 μg/ml; acyclovir pretreatment
Protocol: The human Burkitt's lymphoma cell line, Akata, provided by Dr. Kenzo Takada (Takada, Int. J. Cancer, 33:27-32 (1984); and Takada et al, Virus Genes, 5:147-156 (1991)), was cultured at 37° C. in RPMI 1640 medium supplemented with 15% (v/v) heat-inactivated FCS, and 20 μg/ml gentamicin.
The cell progression of Akata cells was arrested by culturing of the cells for 96 hrs in the presence of 1.5% (y/v) DMSO (Sigma, St. Louis, Mo.) (Sawai et al, Exp. Cell Res., 187:4-10 (1990); and Takase et al, Cell Growth Differ., 3:515-521 (1992)).
1 hr after transfer (release from DMSO), a goat F(ab')2 fragment of anti-human IgG antibody (Organon Teknika, Durham, N.C.) was added at a concentration of 50 μg/ml to induce productive EBV replication (Takagi et al, Virology, 185:309-315 (1991)).
3 hrs and 20 hrs after treatment with the anti-IgG, the cells were harvested for flow cytometric detection of the BamHI Z replication activator (ZEBRA), and for in situ detection of EBV DNA, respectively. […]
More specifically, cells coated on a glass slide were fixed in acetone at room temperature for 10 min. […] Positivity for EBV DNA was determined by the presence of red-colored grains and at least 1000 cells were examined under light microscopy. […]

COc1ccc(C(=O)N2CCN(c3ccc4c(c3)CCC(=O)N4)CC2)cc1OC [vesnarinone, 3,4-dihydro-6-[4-(3,4-dimethoxybenzoyl)-1-piperazinyl]-2(1H)-quinoline]
uptake of [3H]AZT [1]: the uptake of [^3 H]AZT was not affected by vesnarinone | uptake of [3H]thymidine [1]: inhibits the uptake of [^3 H]thymidine in a dose-dependent manner | population of EBV producing cells (positivity for EBV DNA) [2]: gradually decreased in the presence of vesnarinone in a dose-dependent manner
